Reference: PMC6361841, “Repurposing of Drugs as Novel Influenza Inhibitors From Clinical Gene Expression Infection Signatures” (Frontiers in Immunology, 2019)

Assays:
[1] = test system: A/Lyon/969/2009 H275Y (H1N1); format: cell-based, influenza virus
[2] = test system: influenza A/Lyon/969/09 (H1N1)pdm09 virus; format: cell-based; details: basolateral medium replaced with fresh medium without drugs

Compound | Viral titer [1] [log TCID50/ml] | Reversibility of inhibitory and protective properties [2]
COc1ccc([C@@H]2Sc3ccccc3N(CCN(C)C)C(=O)[C@@H]2OC(C)=O)cc1 [Diltiazem] | 2.8 | progressively reversible
CCNCC(O)c1cccc(O)c1 (stereo not drawn) [Etilefrine] | 2.8 | –
